Laboratory results reported in patent publication US11555036B2, “FGFR4 inhibitor, preparation method therefor and pharmaceutical use thereof” (Abbisko Therapeutics Co., Ltd., priority 2016, dated 2023).
One block for each compound: values may come before it.

Assays:
FGFR4 = FGFR4 (Homo sapiens, UniProt P22455); experiment: FGFR4 Caliper Assay (in vitro biochemical kinase analysis of FGFR4); details: read-out: Enzymatic activity FGFR4 IC50
How it was run: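 Kinase reaction at 30° C for 40 min in 50 mM HEPES pH 7.5, 16 mM MgCl2, 1 mM DTT, 0.6% DMSO, stopped with EDTA. Phosphorylated and unphosphorylated fluorescent peptides separated by Caliper microfluidic mobility shift. IC50 by non-linear regression of percent inhibition.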

[1] = test system: Huh7 hepatocellular carcinoma cells; experiment: FGFR4 cell proliferation experiment, Cell Titer Glo (CTG); assay type: cell-based; details: Homo sapiens, Huh-7, 72 h, HuH-7 cells, 3 days; for IC50: concentration leading to absolute half growth inhibition; for EC50: concentration leading to half maximal growth inhibition
How it was run: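 Cells treated with 5-fold serial dilutions starting at 10 μM for 3 days at 37° C, 5% CO2. Proliferation/survival quantified as cellular ATP by CellTiter-Glo luminescence.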

Sequence of FGFR4 (P22455 22-802): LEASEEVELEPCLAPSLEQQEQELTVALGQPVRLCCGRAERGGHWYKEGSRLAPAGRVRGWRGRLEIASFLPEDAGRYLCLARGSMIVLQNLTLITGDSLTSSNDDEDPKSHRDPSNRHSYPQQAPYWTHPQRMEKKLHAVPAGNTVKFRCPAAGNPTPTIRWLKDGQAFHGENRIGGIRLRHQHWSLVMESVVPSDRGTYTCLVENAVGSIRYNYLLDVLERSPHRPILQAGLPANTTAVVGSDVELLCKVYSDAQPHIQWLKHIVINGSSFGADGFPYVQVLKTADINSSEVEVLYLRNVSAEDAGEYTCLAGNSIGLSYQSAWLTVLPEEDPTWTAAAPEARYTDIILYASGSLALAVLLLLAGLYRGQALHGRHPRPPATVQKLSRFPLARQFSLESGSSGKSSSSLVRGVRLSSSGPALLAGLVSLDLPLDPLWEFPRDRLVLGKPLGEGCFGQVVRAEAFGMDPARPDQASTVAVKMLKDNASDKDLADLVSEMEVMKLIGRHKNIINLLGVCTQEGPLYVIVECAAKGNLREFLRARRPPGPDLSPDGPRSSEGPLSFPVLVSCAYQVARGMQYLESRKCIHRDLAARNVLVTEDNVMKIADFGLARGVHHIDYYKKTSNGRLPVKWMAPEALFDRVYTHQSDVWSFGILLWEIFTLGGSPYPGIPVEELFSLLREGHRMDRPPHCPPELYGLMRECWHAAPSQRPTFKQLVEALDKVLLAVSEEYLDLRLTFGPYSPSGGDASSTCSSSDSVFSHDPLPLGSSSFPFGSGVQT

- IC50 (FGFR4): 115 nM
- IC50 [1]: 194 nM
- EC50 [1]: 164 nM
SMILES: C=CC(=O)NCc1cc2c(cn1)cc(-c1c(Cl)c(OC)cc(OC)c1Cl)c(=O)n2C [Example 730, N-((3-(2,6-dichloro-3,5-dimethoxyphenyl)-1-methyl-2-oxo-1,2-dihydro-1,6-naphthyridin-7-yl)methyl)acrylamide]

- IC50 (FGFR4): 3.2 nM
- IC50 [1]: 8.8 nM
- EC50 [1]: 6.9 nM
SMILES: C=CC(=O)N[C@H]1COC[C@H]1Nc1ncc2cc(-c3c(F)c(OC)cc(OC)c3F)nc(N3CCC3)c2n1 [Example 774, N-((3R,4S)-4-((8-(azetidin-1-yl)-6-(2,6-difluoro-3,5-dimethoxyphenyl)py-rido[3,4-d]pyrimidin-2-yl)amino)tetra-hydrofuran-3-yl)acrylamide]

- IC50 (FGFR4): 14.3 nM
- IC50 [1]: 51.8 nM
- EC50 [1]: 20.7 nM
SMILES: C=CC(=O)N[C@H]1COC[C@H]1Nc1ncc2cc(-c3cc(OC)cc(OC)c3Cl)nc(-c3cnn(C)c3)c2n1 [Example 761, N-((3R,4S)-4-((6-(2-chloro-3,5-dimeth-oxyphenyl)-8-(1-methyl-1H-pyrazol-4-yl)pyrido[3,4-d]pyrimidin-2-yl)ami-no)tetrahydrofuran-3-yl)acrylamide]

- IC50 (FGFR4): 8.5 nM
- IC50 [1]: 20.2 nM
- EC50 [1]: 17.2 nM
SMILES: C=CC(=O)N[C@H]1CCOC[C@H]1Nc1ncc2cc(-c3c(Cl)c(OC)cc(OC)c3Cl)nc(N3CC(OC)C3)c2n1 [Example 704, N-((3S,4S)-3-((6-(2,6-dichloro-3,5-di-methoxyphenyl)-8-(3-methoxyazeti-din-1-yl)pyrido[3,4-d]pyrimidin-2-yl)amino)tetrahydro-2H-pyran-4-yl)acrylamide]

Second part, the compound before the results:

SMILES: C=CC(=O)Nc1cccc(C)c1Nc1cc2c(=O)[nH]c(-c3c(Cl)c(OC)cc(OC)c3Cl)nc2cn1 [Example 5, N-(2-((2-(2,6-dichloro-3,5-dimethoxyphenyl)-4-oxo-3,4-dihydropyrido[3,4-d]pyrimidin-6-yl)amino)-3-methyl-phenyl)acrylamide]
- IC50 (FGFR4): 26.1 nM
- IC50 [1]: > 10000 nM
- EC50 [1]: > 10000 nM

SMILES: C=CC(=O)N[C@H]1COC[C@H]1Nc1ncc2cc(-c3c(Cl)c(OC)cc(OC)c3Cl)nc(-c3cnn(C)c3)c2n1 [Example 629, N-((3R,4S)-4-((6-(2,6-dichloro-3,5-di-methoxyphenyl)-8-(1-methyl-1H-pyrazol-4-yl)pyrido[3,4-d]pyrimidin-2-yl)amino)tetrahydrofuran-3-yl)acryl-amide]
- IC50 (FGFR4): 2.9 nM
- IC50 [1]: 4 nM
- EC50 [1]: 2.6 nM
